Measured values published in PubChem BioAssay (NCI).
Values joined by “and” are separate entries in the source; they are usually repeats but may differ in a detail not shown here. Equal entries are not always repeated.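 Test compounds were applied to cells in 96-well plates for 48 hours at 5 doses. Abbreviation: GI50, concentration required for 50% inhibition of growth. The concentration for full growth arrest is given as TGI.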 Active and inactive are the calls of the source. Cut-off read from the data, not from the text of the source: active = GI50 below about 0.43 µM; inactive = the rest.

How the values were obtained:
Assay in all cases: NCI tumour cell line growth inhibition, 48 h
HCT-116 colon = test system: HCT-116 colon
LXFL 529 NSCLC = test system: LXFL 529 NSCLC
M19-MEL melanoma = test system: M19-MEL melanoma
NCI-H23 lung = test system: NCI-H23 lung
OVCAR-4 ovarian = test system: OVCAR-4 ovarian
SNB-19 CNS = test system: SNB-19 CNS
SNB-78 CNS = test system: SNB-78 CNS
MDA-MB-435 = test system: MDA-MB-435
PC-3 prostate = test system: PC-3 prostate

| SMILES | TGI (HCT-116 colon) | TGI (LXFL 529 NSCLC) | TGI (M19-MEL melanoma) | TGI (NCI-H23 lung) | TGI (OVCAR-4 ovarian) | TGI (SNB-19 CNS) | TGI (SNB-78 CNS) | TGI (MDA-MB-435) | TGI (PC-3 prostate) | GI50 (NCI-H23 lung) | GI50 (SNB-19 CNS) | GI50 (SNB-78 CNS) | GI50 (HCT-116 colon) | outcome (LXFL 529 NSCLC) | GI50 (OVCAR-4 ovarian) | GI50 (LXFL 529 NSCLC) | GI50 (M19-MEL melanoma) |
| --- | --- | --- | --- | --- | --- | --- | --- | --- | --- | --- | --- | --- | --- | --- | --- | --- | --- |
| O=C1c2ccoc2C(=O)c2oc(=O)ccc21 | 10.3 µM | 15.2 µM | 2.9 µM | 4.01 µM | 13.5 µM | 31 µM | 42.8 µM |  |  |  |  |  |  |  |  |  |  |
| COc1ccc2nc(-c3ccc(O)cc3)ccc2c1 | > 100 µM | > 100 µM | > 100 µM | > 100 µM | > 100 µM | > 100 µM | > 100 µM |  |  |  |  |  |  |  |  |  |  |
| CC(C)(C)c1cc(C(OCCl)(C(F)(F)F)C(F)(F)F)c2c(c1)C(C(F)(F)F)(C(F)(F)F)OC21c2ccccc2C(=O)c2ccccc21 | > 100 µM | > 100 µM | > 100 µM | > 100 µM | > 100 µM | > 100 µM | > 100 µM |  |  |  |  |  |  |  |  |  |  |
| C1=C(c2ccccc2)C(OC2Oc3ccccc3C=C2c2ccccc2)Oc2ccccc21 (stereo unspecified) | > 100 µM | > 100 µM | > 100 µM | > 100 µM |  | > 100 µM | > 100 µM |  |  |  |  |  |  |  |  |  |  |
| O=C(O)C1=C(C(=O)O)Oc2ccccc2O1 | > 100 µM | > 100 µM | > 100 µM | > 100 µM | > 100 µM | > 100 µM | > 100 µM |  |  |  |  |  |  |  |  |  |  |
| COc1cccc2c1[C@H]1OC(=O)NC1CCCCC2 (stereo partly specified) | > 100 µM | > 100 µM | > 100 µM | > 100 µM | > 100 µM | > 100 µM | > 100 µM |  |  |  |  |  |  |  |  |  |  |
| Nc1ncnc2c1ncn2CCOC(c1ccccc1)P(=O)(O)O (stereo unspecified) | > 100 µM | > 100 µM | > 100 µM | > 100 µM |  | > 100 µM | > 100 µM |  |  |  |  |  |  |  |  |  |  |
| O=C(CCC(=O)C1Cc2ccccc2C1=O)Nc1cccc(C(F)(F)F)c1 (stereo unspecified) | > 100 µM | > 100 µM | > 100 µM | > 100 µM | > 100 µM | > 100 µM | > 100 µM |  |  |  |  |  |  |  |  |  |  |
| COc1cc2c(cc1OC)C(SC)C(=O)N(Cc1cccc(OC)c1OC)CC2 (stereo unspecified) | > 70.2 µM | 39.5 µM | 22.3 µM | 18.2 µM | 98.5 µM | > 100 µM | 5.19 µM | 8.36 µM | > 69 µM |  |  |  |  |  |  |  |  |
| O=c1[nH]c(=O)n(C2CC(O)C(O)C(CO)O2)cc1F (stereo unspecified) | > 100 µM | > 100 µM | > 100 µM | > 100 µM | > 100 µM | > 100 µM | > 100 µM |  |  |  |  |  |  |  |  |  |  |
| CC(=O)c1c(O)c2c([nH]c1=O)CCCC2 |  | > 100 µM | 44.3 µM | > 100 µM | > 100 µM | 33.9 µM | > 100 µM |  |  |  |  |  |  |  |  |  |  |
| O=S(=O)(Cc1ccccc1)SCc1ccccc1 | 35.4 µM |  | 53.9 µM | 52.7 µM | 54 µM | > 100 µM | 48.2 µM |  |  |  |  |  |  |  |  |  |  |
| Nc1nc(-c2ccccc2)cc(-c2cc(Cl)ccc2O)n1 | > 100 µM | > 100 µM |  | > 100 µM | > 100 µM | > 100 µM | > 100 µM |  |  |  |  |  |  |  |  |  |  |
| CCOC(=O)COc1cccc2occc(=O)c12 | > 100 µM | > 100 µM | > 100 µM | > 100 µM | > 100 µM | > 100 µM | > 100 µM |  |  |  |  |  |  |  |  |  |  |
| Nc1c(-c2nc3ccccc3s2)[n+]([O-])c2ccccc2[n+]1[O-] | 63.9 µM | 77.6 µM | 84.2 µM | 51.4 µM | > 100 µM | > 100 µM | > 100 µM |  |  |  |  |  |  |  |  |  |  |
| CC1CCC2c3c([nH]c4ccccc34)C3C(=O)N(c4ccccc4)C(=O)C3C2C1 (stereo unspecified) | > 250 µM | > 250 µM | > 250 µM | > 250 µM | > 250 µM | > 250 µM | 42.2 µM and > 250 µM |  |  | 30.3 µM | 69.2 µM | 35.2 µM |  |  |  |  |  |
| C1CCN2CC3CONC3C2C1 (stereo unspecified) | > 100 µM | > 100 µM | > 100 µM | > 100 µM | > 100 µM | > 100 µM | > 100 µM |  |  |  |  |  |  |  |  |  |  |
| NC(=O)C(=O)Cc1nc2ccccc2s1 | > 100 µM | > 100 µM | > 100 µM | > 100 µM | > 100 µM | > 100 µM | > 100 µM |  |  |  |  |  |  |  |  |  |  |

| SMILES | TGI (HCT-116 colon) | TGI (LXFL 529 NSCLC) | TGI (M19-MEL melanoma) | TGI (NCI-H23 lung) | TGI (OVCAR-4 ovarian) | TGI (SNB-19 CNS) | TGI (SNB-78 CNS) | TGI (MDA-MB-435) | TGI (PC-3 prostate) | GI50 (NCI-H23 lung) | GI50 (SNB-19 CNS) | GI50 (SNB-78 CNS) | GI50 (HCT-116 colon) | outcome (LXFL 529 NSCLC) | GI50 (OVCAR-4 ovarian) | GI50 (LXFL 529 NSCLC) | GI50 (M19-MEL melanoma) |
| --- | --- | --- | --- | --- | --- | --- | --- | --- | --- | --- | --- | --- | --- | --- | --- | --- | --- |
| COc1ccc2c3c(c(C(=O)O)oc13)C(CCC(=O)O)CC2 (stereo unspecified) | > 100 µM | > 100 µM |  | > 100 µM | > 100 µM | > 100 µM | > 100 µM |  |  |  |  |  |  |  |  |  |  |
| c1ccc2c(c1)[O][Sn][O]2 | > 150 µg/mL |  |  | 113 µg/mL | > 150 µg/mL | > 150 µg/mL | > 150 µg/mL |  |  | 21.3 µg/mL | 61.5 µg/mL | > 150 µg/mL | 19.8 µg/mL | inactive | 102 µg/mL |  |  |
| C/C(CC(=O)Nc1cccc(Cl)c1C)=N\N=C(N)N | > 100 µM | > 100 µM | > 100 µM | > 100 µM | > 100 µM | > 100 µM | > 100 µM |  |  |  |  |  |  |  |  |  |  |
| Cc1csc(CCC(N)C(=O)O)n1 (stereo unspecified) | > 100 µM | > 100 µM | > 100 µM | > 100 µM |  |  | > 100 µM |  |  |  |  |  |  |  |  |  |  |
| CN(C)CCNC(=O)c1cccc2cc3ccc4ccccc4c3nc12 | 1.05 µM | 0.665 µM | 0.235 µM | 0.39 µM | 0.752 µM | 0.919 µM | 12.5 µM |  |  |  |  |  |  |  |  |  |  |
| Cc1cc2c(cc1C)[n+](=O)c(C(=O)/C=C/c1ccccc1[N+](=O)[O-])c(C)n2[O-] | > 100 µM | > 100 µM | > 100 µM | 63 µM | > 100 µM | 42.3 µM | > 80.9 µM | > 100 µM | > 100 µM |  |  |  |  |  |  |  |  |
| COC(=O)c1cc2ccccc2c2nc3ccccc3c(Cl)c12 | > 100 µM | > 100 µM | > 100 µM | > 100 µM | > 100 µM | > 100 µM |  |  |  |  |  |  |  |  |  |  |  |
| O[C@]12c3ccccc3C1CCCCC2N1CCOCC1 (stereo partly specified) | > 100 µM | > 100 µM | > 100 µM | > 100 µM | > 100 µM | > 100 µM | > 100 µM |  |  |  |  |  |  |  |  |  |  |
| Cc1c(C)c2ccc(OC(C)C(=O)O)cc2oc1=O (stereo unspecified) | > 100 µM | > 100 µM | > 100 µM | > 100 µM | > 100 µM | > 100 µM | > 100 µM |  |  |  |  |  |  |  |  |  |  |
| CC1(C)CC(O)CC(C)(C)N1.CC1(C)CC(O)CC(C)(C)N1.CC1(C)CC(O)CC(C)(C)N1.CC1(C)CC(O)CC(C)(C)N1.Cl.[Ti] | > 100 µM | > 100 µM | > 100 µM | > 100 µM | > 100 µM |  | > 100 µM |  |  | > 100 µM |  | > 100 µM | > 100 µM |  | > 100 µM | > 100 µM | > 100 µM |
| Nc1c(C(=O)Nc2ccccc2O)[n+]([O-])c2ccccc2[n+]1[O-] | > 100 µM | > 100 µM | 27.7 µM | 84.7 µM | > 100 µM | > 100 µM | > 100 µM |  |  |  |  |  |  |  |  |  |  |
| CC(C)=CC(=O)CC(=O)C(=O)NCCNC(=O)C(=O)CC(=O)C=C(C)C | > 50 µM | > 50 µM | > 50 µM | > 50 µM | > 50 µM | > 50 µM | > 50 µM |  |  |  |  |  |  |  |  |  |  |
| O=C(Nc1ccc(Cl)c(Cl)c1)C1C(=O)N(c2ccc(Cl)c(Cl)c2)C(=O)/C1=N\O (stereo unspecified) | > 100 µM | > 100 µM | > 100 µM | > 100 µM | > 100 µM | > 100 µM | > 100 µM |  |  |  |  |  |  |  |  |  |  |
| CC(C)CCCC(C)[C@H]1CCC2[C@@H]3CCC4Cc5nc6c(nc5C[C@]4(C)C3CC[C@@]21C)CC1CC[C@@H]2C(CC[C@@]3(C)C2CC[C@@H]3O)[C@@]1(C)C6 (stereo partly specified) | > 100 µM |  |  | > 100 µM | > 100 µM | > 100 µM |  | > 100 µM | > 100 µM |  |  |  |  |  |  |  |  |
| Cc1cc(OC(=O)c2c(C)cc(OC(=O)c3c(C)cc(O)cc3O)cc2O)cc(O)c1C(=O)O |  | > 100 µM | > 100 µM | > 100 µM | > 100 µM | > 100 µM | > 100 µM |  |  |  |  |  |  |  |  |  |  |
| CC1=C(C(=O)CC(=O)C(=O)Nc2ccccc2C)Sc2ccccc2N1 | > 55.8 µM |  | > 100 µM | > 100 µM | > 100 µM | > 100 µM | > 100 µM |  |  |  |  |  |  |  |  |  |  |
| O=c1c2ccccc2n2cnc3ccc(NCCNCCO)c1c32 | 8.29 µM | 16.4 µM | 12.9 µM | 8.12 µM | 4.57 µM | 22.6 µM | 15.5 µM | 6.68 µM | 6.15 µM |  |  |  |  |  |  |  |  |
